Measured values published in US9777003B2, “Tricyclic heterocycles as bet protein inhibitors” (Incyte Corporation, priority 2013, dated 2017).
pIC50: −log10 of the molar value. Structures can show the parent of a compound that is named as a salt.

Legend:
BRD4-BD2 = BRD4-BD2 (Homo sapiens (Human), UniProt O60885); experiment: BRD4 AlphaScreen assay, BRD4-BD2; assay type: binding; settings: biotin-labeled tetra-acetylated histone H4 peptide, 75 min, room temperature, read-out: BRD4 BD-2 enzyme IC50
Outline: (§1)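 Displacement of 50 nM biotinylated tetra-acetylated H4 peptide (H4Ac4) from BRD4-BD1 (3.8 nM) or BRD4-BD2 (20 nM) in HEPES pH 7.4, 100 mM NaCl, CHAPS, BSA; 75 min at room temperature. Streptavidin donor/GSH acceptor beads were added for a further 75 min in the dark; IC50 from percent control activity versus log concentration.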

BRD4-BD1 = BRD4-BD1 (Homo sapiens (Human), UniProt O60885); experiment: BRD4 AlphaScreen assay, BRD4-BD1; assay type: binding; settings: biotin-labeled tetra-acetylated histone H4 peptide, 75 min, room temperature, read-out: BRD4 BD-1 enzyme IC50
Outline: as §1

Compound	pIC50 (BRD4-BD2)	pIC50 (BRD4-BD1)
Cc1nnc2ccc3c(cc(C(=O)NCCCO)n3Cc3ccccc3)n12 [Example 123, 6-Benzyl-N-(3-hydroxypropyl)-1-methyl-6H-pyrrolo[2,3-e][1,2,4]triazolo[4,3-a]pyridine-7-carboxamide Trifluoroacetate Salt]	≥ 7.00	6.00 to 7.00
Cc1nnc2ccc3c(cc(C(=O)NCC4CNC4)n3Cc3ccccc3)n12 [Example 124, N-(Azetidin-3-ylmethyl)-6-benzyl-1-methyl-6H-pyrrolo[2,3-e][1,2,4]triazolo[4,3-a]pyridine-7-carboxamide bis(trifluoroacetate) Salt]	5.00 to 6.00	5.00 to 6.00
Cc1nnc2ccc3c(cc(C(=O)NCC(C)C)n3Cc3ccccc3)n12 [Example 125, 6-Benzyl-N-isobutyl-1-methyl-6H-pyrrolo[2,3-e][1,2,4]triazolo[4,3-a]pyridine-7-carboxamide Trifluoroacetate]	6.00 to 7.00	6.00 to 7.00
Cc1nnc2ccc3c(cc(C(=O)NCc4ccncc4)n3Cc3ccccc3)n12 [Example 126, 6-Benzyl-1-methyl-N-(pyridin-4-ylmethyl)-6H-pyrrolo[2,3-e][1,2,4]triazolo[4,3-a]pyridine-7-carboxamide bis(trifluoroacetate) Salt]	6.00 to 7.00	6.00 to 7.00
Cc1nnc2ccc3c(cc(C(=O)NCCCO)n3Cc3cccc(Cl)c3)n12 [Example 127, 6-(3-Chlorobenzyl)-N-(3-hydroxypropyl)-1-methyl-6H-pyrrolo[2,3-e][1,2,4]triazolo[4,3-a]pyridine-7-carboxamide Trifluoroacetate Salt]	≥ 7.00	≥ 7.00
Cc1nnc2ccc3c(cc(C(=O)NCC4CNC4)n3Cc3cccc(Cl)c3)n12 [Example 128, N-(Azetidin-3-ylmethyl)-6-(3-chlorobenzyl)-1-methyl-6H-pyrrolo[2,3-e][1,2,4]triazolo[4,3-a]pyridine-7-carboxamide bis(trifluoroacetate) Salt]	6.00 to 7.00	6.00 to 7.00
Cc1nnc2ccc3c(cc(C(=O)NCC(C)C)n3Cc3cccc(Cl)c3)n12 [Example 129, 6-(3-Chlorobenzyl)-N-isobutyl-1-methyl-6H-pyrrolo[2,3-e][1,2,4]triazolo[4,3-a]pyridine-7-carboxamide Trifluoroacetate Salt]	≥ 7.00	≥ 7.00
CNC(=O)c1cc2c(ccc3nnc(C)n32)n1Cc1cc(Cl)cc(CN2CCC2)c1 [Example 131, 6-[3-(Azetidin-1-ylmethyl)-5-chlorobenzyl]-N,1-dimethyl-6H-pyrrolo[2,3-e][1,2,4]triazolo[4,3-a]pyridine-7-carboxamide bis(trifluoroacetate) Salt]	≥ 7.00	≥ 7.00
CCNC(=O)c1cc2c(ccc3nnc(C)n32)n1Cc1cc(Cl)cc(CN2CCCC2)c1 [Example 133, 6-[3-Chloro-5-(pyrrolidin-1-ylmethyl)benzyl]-N-ethyl-1-methyl-6H-pyrrolo[2,3-e][1,2,4]triazolo[4,3-a]pyridine-7-carboxamide bis(trifluoroacetate) Salt]	≥ 7.00	≥ 7.00
CNC(=O)c1cc2c(ccc3nnc(C)n32)n1Cc1cc(Cl)cc(CN2CCC(F)(F)C2)c1 [Example 134, 6-{3-Chloro-5-[(3,3-difluoropyrrolidin-1-yl)methyl]benzyl}-N,1-dimethyl-6H-pyrrolo[2,3-e][1,2,4]triazolo[4,3-a]pyridine-7-carboxamide 2.4×(trifluoroacetate) Salt]	≥ 7.00	≥ 7.00
CNC(=O)c1cc2c(ccc3nnc(C)n32)n1Cc1cc(Cl)cc(CN2CC(C)(C)C2)c1 [Example 135, 6-{3-Chloro-5-[(3,3-dimethylazetidin-1-yl)methyl]benzyl}-N,1-dimethyl-6H-pyrrolo[2,3-e][1,2,4]triazolo[4,3-a]pyridine-7-carboxamide bis(trifluoroacetate) Salt]	≥ 7.00	≥ 7.00
CNC(=O)c1cc2c(ccc3nnc(C)n32)n1Cc1cccc(C(F)(F)F)c1 [Example 136, N,1-dimethyl-6-[3-(trifluoromethyl)benzyl]-6H-pyrrolo[2,3-e][1,2,4]triazolo[4,3-a]pyridine-7-carboxamide Trifluoroacetate Salt]	≥ 7.00	≥ 7.00
CCNC(=O)c1cc2c(ccc3nnc(C)n32)n1Cc1cccc(C(F)(F)F)c1 [Example 137, N-Ethyl-1-methyl-6-[3-(trifluoromethyl)benzyl]-6H-pyrrolo[2,3-e][1,2,4]triazolo[4,3-a]pyridine-7-carboxamide Trifluoroacetate Salt]	≥ 7.00	≥ 7.00
Cc1nnc2ccc3c(cc(C(F)(F)F)n3Cc3ccccc3)n12 [Example 138, 6-Benzyl-1-methyl-7-(trifluoromethyl)-6H-pyrrolo[2,3-e][1,2,4]triazolo[4,3-a]pyridine Trifluoroacetate Salt]	6.00 to 7.00	6.00 to 7.00
CNC(=O)Nc1cc2c(cc(C)n2Cc2cc(Cl)cc(CN3CCCC3)c2)n2c(C)nnc12 [Example 142, N-{6-[3-Chloro-5-(pyrrolidin-1-ylmethyl)benzyl]-1,7-dimethyl-6H-pyrrolo[2,3-e][1,2,4]triazolo[4,3-a]pyridin-4-yl}-N′-methylurea bis(trifluoroacetate) Salt]	≥ 7.00	≥ 7.00
Cc1nnc2ccc3c(cc(-c4ncco4)n3Cc3ccccc3)n12 [Example 143, 6-benzyl-1-methyl-7-(1,3-oxazol-2-yl)-6H-pyrrolo[2,3-e][1,2,4]triazolo[4,3-a]pyridine Trifluoroacetate Salt]	≥ 7.00	≥ 7.00
Cc1cc2c(cc(NC3CCOCC3)c3nnc(C)n32)n1Cc1ccccc1 [Example 146, 6-benzyl-1,7-dimethyl-N-(tetrahydro-2H-pyran-4-yl)-6H-pyrrolo[2,3-e][1,2,4]triazolo[4,3-a]pyridin-4-amine]	≥ 7.00	≥ 7.00
Cc1cc2c(cc(N[C@@H]3CCOC3)c3nnc(C)n32)n1Cc1ccccc1 [Example 147, 6-benzyl-1,7-dimethyl-N-[(3R)-tetrahydrofuran-3-yl]-6H-pyrrolo[2,3-e][1,2,4]triazolo[4,3-a]pyridin-4-amine]	≥ 7.00	≥ 7.00

The next lines start with the values.

pIC50 (BRD4-BD2)	pIC50 (BRD4-BD1)	Compound
≥ 7.00	≥ 7.00	Cc1cc2c(cc(N[C@H]3CCOC3)c3nnc(C)n32)n1Cc1ccccc1 [Example 148, 6-benzyl-1,7-dimethyl-N-[(3S)-tetrahydrofuran-3-yl]-6H-pyrrolo[2,3-e][1,2,4]triazolo[4,3-a]pyridin-4-amine]
≥ 7.00	6.00 to 7.00	Cc1cc2c(cc(N[C@@H]3CCN(C(=O)OC(C)(C)C)C3)c3nnc(C)n32)n1Cc1ccccc1 [Example 149, tert-butyl (3R)-3-[(6-benzyl-1,7-dimethyl-6H-pyrrolo[2,3-e][1,2,4]triazolo[4,3-a]pyridin-4-yl)amino]pyrrolidine-1-carboxylate]
≥ 7.00	≥ 7.00	Cc1cc2c(cc(N[C@H]3CCN(C(=O)OC(C)(C)C)C3)c3nnc(C)n32)n1Cc1ccccc1 [Example 150, tert-butyl (3S)-3-[(6-benzyl-1,7-dimethyl-6H-pyrrolo[2,3-e][1,2,4]triazolo[4,3-a]pyridin-4-yl)amino]pyrrolidine-1-carboxylate]
≥ 7.00	≥ 7.00	Cc1cc2c(cc(N[C@@H]3CCNC3)c3nnc(C)n32)n1Cc1ccccc1 [Example 151, 6-benzyl-1,7-dimethyl-N-[(3R)-pyrrolidin-3-yl]-6H-pyrrolo[2,3-e][1,2,4]triazolo[4,3-a]pyridin-4-amine bis(trifluoroacetate) Salt]
≥ 7.00	≥ 7.00	Cc1cc2c(cc(N[C@H]3CCNC3)c3nnc(C)n32)n1Cc1ccccc1 [Example 152, 6-benzyl-1,7-dimethyl-N-[(3S)-pyrrolidin-3-yl]-6H-pyrrolo[2,3-e][1,2,4]triazolo[4,3-a]pyridin-4-amine bis(trifluoroacetate) Salt]
≥ 7.00	≥ 7.00	Cc1cc2c(cc(NC3CCN(C)CC3)c3nnc(C)n32)n1Cc1ccccn1 [Example 153, 1,7-dimethyl-N-(1-methylpiperidin-4-yl)-6-(pyridin-2-ylmethyl)-6H-pyrrolo[2,3-e][1,2,4]triazolo[4,3-a]pyridin-4-amine]
≥ 7.00	≥ 7.00	Cc1cc2c(cc(NC3CCN(C)CC3)c3nnc(C)n32)n1Cc1cccnc1 [Example 154, 1,7-dimethyl-N-(1-methylpiperidin-4-yl)-6-(pyridin-3-ylmethyl)-6H-pyrrolo[2,3-e][1,2,4]triazolo[4,3-a]pyridin-4-amine]
≥ 7.00	≥ 7.00	Cc1nnc2ccc3c(cc(-c4ccn[nH]4)n3Cc3cccc(Cl)c3)n12 [Example 155, 6-(3-chlorobenzyl)-1-methyl-7-(1H-pyrazol-5-yl)-6H-pyrrolo[2,3-e][1,2,4]triazolo[4,3-a]pyridine bis(trifluoroacetate) Salt]
≥ 7.00	≥ 7.00	CCN1CC(CC#N)(n2ccc(-c3cc4c(ccc5nnc(C)n54)n3Cc3cccc(Cl)c3)n2)C1 [Example 158, (3-{3-[6-(3-Chlorobenzyl)-1-methyl-6H-pyrrolo[2,3-e][1,2,4]triazolo[4,3-a]pyridin-7-yl]-1H-pyrazol-1-yl}-1-ethylazetidin-3-yl)acetonitrile bis(trifluoroacetate) Salt]
≥ 7.00	≥ 7.00	CCN1CC(n2ccc(-c3cc4c(ccc5nnc(C)n54)n3Cc3cccc(Cl)c3)n2)C1 [Example 160, 6-(3-Chlorobenzyl)-7-[1-(1-ethylazetidin-3-yl)-1H-pyrazol-3-yl]-1-methyl-6H-pyrrolo[2,3-e][1,2,4]triazolo[4,3-a]pyridine bis(trifluoroacetate) Salt]
